{"source": "patent EP1206474B1", "about": "“SULFONYLPHENYLPYRAZOLE COMPOUNDS USEFUL AS COX-2 INHIBITORS” (ABBOTT LABORATORIES, priority 1999, dated 2001)", "key": {"[1]": {"test_system": "Human amnionic WISH cells", "experiment": "IL-1β induced PGE2 production in WISH cells", "type": "cell-based", "conditions": "IL-1β induced PGE2, 18 hour incubation; for IC50: parenthetical value, read-out: WISH (parenthetical value, IC50 by analogy with Table 1); for inhibition at 1 µM: at 1000 nM", "description": "(§1) EIA reagents for prostaglandin determination were purchased from Perseptive Diagnostics, (Cambridge, MA). Prostaglandin E2 (PGE2) levels in lavage fluids were determined after the samples were dried under nitrogen and reconstituted with assay buffer. PGE2 levels in enzyme assays or cell culture media were measured against standards prepared in the same milieu. The immunoassays were conducted as recommended by the manufacturer. The EIA was conducted in 96 well microtiter plates (Nunc Roskilde, Denmark) and optical density was measured using a microplate reader (Vmax, Molecular Devices Corp., Menlo Park, CA).\nHuman amnionic WISH cells were grown to 80% confluence in 48 well plates. Following removal of the growth medium and two washings with Gey's Balanced Salt Solution, 5 ng IL-1β/ml (UBI, Lake Placid, NY) was added to the cells with or without test compound in DMSO (0.01% v/v) in Neuman-Tytell Serumless Medium (GIBCO, Grand Island, NY). Following an 18 hour incubation to allow for the maximal induction of PGHS-2, the conditioned medium was removed and assayed for PGE2 content by EIA analysis as described above.\nWISH cell values indicate percent inhibition at the particular nanomolar dose level."}, "[2]": {"test_system": "male adrenalectomized Sprague-Dawley rats", "experiment": "Rat carrageenan pleural inflammation (CIP) model", "type": "in vivo", "conditions": "10 milligrams per kilogram body weight, oral, 30 minutes prior to carrageenan; lavage four hours later; inhibition of prostaglandin biosynthesis", "description": "For oral administration, test compounds were suspended on the day of use in 100% polyethyleneglycol (PEG 400) with a motorized homogenizer equipped with a Teflon-coated pestle (TRI-R Instrument, Jamaica, NY).\n(§2) To compare the mean responses of the treatment groups, analysis of variance was applied. Percent inhibition values were determined by comparing the individual treatment mean values to the mean of the control group. Linear regression was used to estimate IC50's/ED50's in appropriate assays.\nas §1\nPleural inflammation was induced in male adrenalectomized Sprague-Dawley rats following the method of Vinegar et al., Fed. Proc. 1976, 35, 2447-2456. […] Eicosanoids were determined by EIA as described above. […]"}, "[3]": {"molecular_target": "T1, recombinant human Cox-1 (r-hu Cox-1) (Homo sapiens, UniProt P23219)", "T1 construct": "made in house; host or cells: baculovirus/Sf9 insect cells (microsomes)", "T1 sequence (P23219 24-599)": "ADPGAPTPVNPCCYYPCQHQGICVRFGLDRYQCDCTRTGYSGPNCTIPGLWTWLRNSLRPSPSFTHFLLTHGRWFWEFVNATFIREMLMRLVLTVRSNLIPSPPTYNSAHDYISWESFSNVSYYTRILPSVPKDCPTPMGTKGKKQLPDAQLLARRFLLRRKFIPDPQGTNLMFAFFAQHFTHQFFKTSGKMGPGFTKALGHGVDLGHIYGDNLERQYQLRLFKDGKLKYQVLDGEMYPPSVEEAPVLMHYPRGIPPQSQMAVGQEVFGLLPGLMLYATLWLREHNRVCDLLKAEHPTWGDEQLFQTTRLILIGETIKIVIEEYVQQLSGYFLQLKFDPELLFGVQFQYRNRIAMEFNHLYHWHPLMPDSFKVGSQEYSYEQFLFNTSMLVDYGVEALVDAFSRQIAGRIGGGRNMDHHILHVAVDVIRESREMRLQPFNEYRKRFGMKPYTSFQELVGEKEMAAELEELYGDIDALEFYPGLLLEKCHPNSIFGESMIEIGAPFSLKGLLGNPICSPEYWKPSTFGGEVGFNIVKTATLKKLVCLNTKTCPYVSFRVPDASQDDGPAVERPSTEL", "experiment": "Recombinant human PGHS-1 (r-hu Cox-1) enzyme assay, PGE2 by EIA", "type": "biochemical", "conditions": "read-out: r-hu COX1 percent inhibition", "description": "as §2, §1\n(§3) Inhibition of prostaglandin biosynthesis in vitro was evaluated using recombinant human Cox-1 (r-hu Cox-1) and Cox-2 (r-hu Cox-2) enzyme assays. […] The reaction was allowed to run for 2.5 minutes at room temperature prior to quenching with HCl and neutralization with NaOH. PGE2 production in the presence and absence of the drug was determined by EIA analysis. The EIA was conducted in 96 well microtiter plates (Nunc Roskilde, Denmark) and optical density was measured using a microplate reader (Vmax, Molecular Devices Corp., Menlo Park, CA). EIA reagents for prostaglandin determination were purchased from Perseptive Diagnostics (Cambridge, MA). PGE2 levels were measured against standards prepared in the same milieu. The immunoassays were conducted as recommended by the manufacturer. The compounds are designated by the Example Number. […] Values for Cox-2 inhibition that are parenthetical indicate IC50 values."}, "[4]": {"molecular_target": "T2, recombinant human Cox-2 (r-hu Cox-2) (Homo sapiens, UniProt P35354)", "T2 construct": "made in house; host or cells: baculovirus/Sf9 insect cells (microsomes)", "T2 sequence (P35354 18-604)": "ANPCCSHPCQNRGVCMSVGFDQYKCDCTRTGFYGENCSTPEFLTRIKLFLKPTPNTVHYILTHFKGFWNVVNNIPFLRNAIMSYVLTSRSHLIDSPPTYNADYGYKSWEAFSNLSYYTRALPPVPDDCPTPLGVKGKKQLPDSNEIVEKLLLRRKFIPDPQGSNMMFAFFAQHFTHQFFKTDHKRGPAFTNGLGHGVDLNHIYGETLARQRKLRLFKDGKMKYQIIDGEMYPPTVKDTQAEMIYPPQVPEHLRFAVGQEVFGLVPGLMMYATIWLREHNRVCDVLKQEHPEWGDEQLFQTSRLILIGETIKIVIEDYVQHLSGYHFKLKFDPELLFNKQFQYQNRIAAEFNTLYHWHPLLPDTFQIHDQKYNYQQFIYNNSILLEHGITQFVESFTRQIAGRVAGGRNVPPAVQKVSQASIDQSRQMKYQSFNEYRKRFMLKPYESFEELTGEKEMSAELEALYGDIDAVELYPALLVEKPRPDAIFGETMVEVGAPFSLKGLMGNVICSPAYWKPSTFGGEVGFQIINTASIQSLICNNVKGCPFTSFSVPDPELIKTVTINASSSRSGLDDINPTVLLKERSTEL", "experiment": "Recombinant human PGHS-2 (r-hu Cox-2) enzyme assay, PGE2 by EIA", "type": "biochemical", "conditions": "for IC50: parenthetical values indicate IC50, read-out: r-hu COX2 IC50 (parenthetical values); for inhibition at 0.1 µM: at 100 nM; for inhibition at 0.1 µM / inhibition at 10 µM: read-out: r-hu COX2 percent inhibition; for inhibition at 10 µM: at 10000 nM", "description": "as §2, §1, §3"}, "[5]": {"conditions": "Homo sapiens, read-out: WISH percent inhibition"}}}
{"smiles": "CC=CC(=O)c1oc2c(-c3ccc(F)cc3)c(-c3ccc(S(C)(=O)=O)cc3)nn2c1C", "note": "[Example 58, 1-[7-(4-Fluorophenyl)-3-methyl-6-(4-(methylsulphonyl)phenyl)pyrazolo[5,1-b][1,3]oxazol-2-yl]but-2-en-1-one]", "values": [{"measurement": "WISH percent inhibition", "setting": "[1]; at 0.1 (nM)", "result": "84 @ 0.1%"}]}
{"smiles": "CS(=O)(=O)c1ccc(-c2nn3c(C4C5CC6CC(C5)CC4C6)coc3c2-c2ccc(F)cc2)cc1", "note": "(stereo not shown) [Example 39, 3-(2-Adamantyl)-7-(4-fluorophenyl)-6-(4-(methylsulphonyl)phenyl)pyrazolo[5,1-b][1,3]oxazole]", "values": [{"measurement": "WISH percent inhibition", "setting": "[1]; at 0.1 (nM)", "result": 38, "unit": "%"}, {"measurement": "WISH percent inhibition", "setting": "[1]; at 1 (nM)", "result": 95, "unit": "%"}]}
{"smiles": "CS(=O)(=O)c1ccc(-c2nn3c(-c4ccccc4)coc3c2-c2ccc(F)cc2)cc1", "note": "[Example 37, 7-(4-Fluorophenyl)-6-(4-(methylsulphonyl)phenyl)-3-phenylpyrazolo[5,1-b][1,3]oxazole]", "values": [{"measurement": "CIP Inh @10mpk", "setting": "[2]", "result": 0, "unit": "%"}]}
{"smiles": "Cc1oc2c(-c3ccc(F)cc3)c(-c3ccc(S(C)(=O)=O)cc3)nn2c1-c1ccccc1", "note": "[Example 41, 7-(4-Fluorophenyl)-2-methyl-6-(4-(methylsulphonyl)phenyl)-3-phenylpyrazolo[5,1-b][1,3]oxazole]", "values": [{"measurement": "WISH percent inhibition", "setting": "[1]; at 0.1 (nM)", "result": 33, "unit": "%"}, {"measurement": "WISH percent inhibition", "setting": "[1]; at 1 (nM)", "result": 52, "unit": "%"}]}
{"smiles": "CCc1coc2c(-c3ccc(F)cc3)c(-c3ccc(S(N)(=O)=O)cc3)nn12", "note": "[Example 62, 6-(4-(aminosulphonyl)phenyl)-3-Ethyl-7-(4-fluorophenyl)pyrazolo[5,1-b][1,3]oxazole]", "values": [{"measurement": "inhibition at 100 µM", "setting": "[3]", "result": 91, "unit": "%"}, {"measurement": "IC50", "setting": "[4]", "result": 2, "unit": "nM"}, {"measurement": "IC50", "setting": "[1]; Homo sapiens", "result": 0.21, "unit": "nM"}]}
{"smiles": "CS(=O)(=O)c1ccc(-c2nn3c(c2-c2ccc(F)cc2)OCc2ccccc2-3)cc1", "note": "[Example 6, 3-(4-Fluorophenyl)-2-(4-(methylsulphonyl)phenyl)-5H-pyrazolo[1,5-b][1,3]-benzoxazine]", "values": [{"measurement": "inhibition at 100 µM", "setting": "[3]", "result": 25, "unit": "%"}, {"measurement": "inhibition at 0.1 µM", "setting": "[4]", "result": 82, "unit": "%"}]}
{"smiles": "CS(=O)(=O)c1ccc(-c2nn3c(c2-c2ccc(F)cc2)OCCCC3)cc1", "note": "[Example 2, 3-(4-Fluorophenyl)-2-(4-(methylsulphonyl)phenyl)-5,6,7,8-tetrahydropyrazolo[5,1-b][1,3]oxazepine]", "values": [{"measurement": "inhibition at 100 µM", "setting": "[3]", "result": 9, "unit": "%"}, {"measurement": "inhibition at 10 µM", "setting": "[4]", "result": 57, "unit": "%"}]}
{"smiles": "Cc1c(C#N)oc2c(-c3ccc(F)cc3)c(-c3ccc(S(C)(=O)=O)cc3)nn12", "note": "[Example 54, 2-Cyano-7-(4-fluorophenyl)-3-methyl-6-(4-(methylsulphonyl)phenyl)pyrazolo[5,1-b][1,3]oxazole]", "values": [{"measurement": "IC50", "setting": "[1]; Homo sapiens", "result": 0.2, "unit": "nM"}]}
{"smiles": "CS(=O)(=O)c1ccc(-c2nn3c(c2-c2ccc(F)cc2)OCCC3)cc1", "note": "[Example 1, 3-(4-Fluorophenyl)-2-(4-(methylsulphonyl)phenyl)-6,7-dihydro-5H-pyrazolo[5,1-b][1,3]oxazine]", "values": [{"measurement": "inhibition at 100 µM", "setting": "[3]", "result": 4, "unit": "%"}, {"measurement": "IC50", "setting": "[4]", "result": 720, "unit": "nM"}, {"measurement": "inhibition at 1 µM", "setting": "[1]; [5]", "result": 19, "unit": "%"}]}
{"smiles": "CS(=O)(=O)c1ccc(-c2nn3c4c(oc3c2-c2ccc(F)cc2)CCCC4)cc1", "note": "[Example 42, 3-(4-Fluorophenyl)-2-(4-(methylsulphonyl)phenyl)-5,6,7,8-tetrahydropyrazolo[5,1-b][1,3]benzoxazole]", "values": [{"measurement": "inhibition at 100 µM", "setting": "[3]", "result": 23, "unit": "%"}, {"measurement": "inhibition at 0.1 µM", "setting": "[4]", "result": 86, "unit": "%"}, {"measurement": "WISH percent inhibition", "setting": "[1]; at 0.01 (nM)", "result": 37, "unit": "%"}, {"measurement": "WISH percent inhibition", "setting": "[1]; at 0.1 (nM)", "result": 81, "unit": "%"}]}
{"smiles": "CS(=O)(=O)c1ccc(-c2nn3c(c2-c2ccc(F)cc2)OCC=CC3)cc1", "note": "[Example 4, 3-(4-Fluorophenyl)-2-(4-methylsulponylphenyl) -5,8-dihydropyrazolo[5,1-b][1,3]oxazepine]", "values": [{"measurement": "inhibition at 100 µM", "setting": "[3]", "result": 12, "unit": "%"}, {"measurement": "inhibition at 10 µM", "setting": "[4]", "result": 62, "unit": "%"}]}
{"smiles": "CS(=O)(=O)c1ccc(-c2nn3c(c2-c2ccc(F)cc2)OCc2ccccc2C3)cc1", "note": "[Example 3]", "values": [{"measurement": "inhibition at 100 µM", "setting": "[3]", "result": 20, "unit": "%"}, {"measurement": "IC50", "setting": "[4]", "result": 90, "unit": "nM"}, {"measurement": "inhibition at 0.01 µM", "setting": "[1]; Homo sapiens, at 10 nM, read-out: WISH percent inhibition", "result": 43, "unit": "%"}, {"measurement": "CIP Inh @10mpk", "setting": "[2]", "result": 3, "unit": "%"}]}
{"smiles": "CC(C)(C)c1coc2c(-c3ccc(F)cc3)c(-c3ccc(S(N)(=O)=O)cc3)nn12", "note": "[Example 55]", "values": [{"measurement": "inhibition at 10 µM", "setting": "[3]; at 10 µM", "result": 99, "unit": "%"}, {"measurement": "inhibition at 0.1 µM", "setting": "[4]", "result": 88, "unit": "%"}]}
{"smiles": "CCc1coc2c(-c3ccc(F)cc3)c(-c3ccc(S(C)(=O)=O)cc3)nn12", "note": "[Example 61, 3-Ethyl-7-(4-fluorophenyl)-6-(4-(methylsulphonyl)phenyl)pyrazolo[5,1-b][1,3]oxazole]", "values": [{"measurement": "inhibition at 100 µM", "setting": "[3]", "result": 23, "unit": "%"}, {"measurement": "inhibition at 0.1 µM", "setting": "[4]", "result": 94, "unit": "%"}]}
{"smiles": "Cc1c(C#N)oc2c(-c3ccc(F)cc3)c(-c3ccc(S(N)(=O)=O)cc3)nn12", "note": "[Example 59, 6-(4-(Aminosulphonyl)phenyl)-2-cyano-7-(4-Fluorophenyl)-3-methyl-pyrazolo[5,1-b][1,3]oxazole]", "values": [{"measurement": "inhibition at 100 µM", "setting": "[3]", "result": 96, "unit": "%"}, {"measurement": "inhibition at 0.1 µM", "setting": "[4]", "result": 51, "unit": "%"}]}
{"smiles": "CS(=O)(=O)c1ccc(-c2nn3c(c2-c2ccc(F)cc2)OCC3)cc1", "note": "[Example 5, 7-(4-Fluorophenyl)-6-(4-(methylsulphonyl)phenyl)-2,3-dihydropyrazolo[5,1-b][1,3]oxazole]", "values": [{"measurement": "inhibition at 1 µM", "setting": "[1]; [5]", "result": 33, "unit": "%"}]}
